# Test results: US9963674B2, “Age-modified cells and methods for making age-modified cells” (Memorial Sloan-Kettering Cancer Center, priority 2013, dated 2018)
# Legend:
# iPSC-derived mDA neurons = test: mDA neuron marker expression (NURR1, TH) as sign of acute toxicity; format: cell-based, human; details: treatment of mDA neurons
# Protocol: Cells were fixed in 4% paraformaldehyde for 15 minutes. Blocking was performed in phosphate-buffered saline supplemented with 1% BSA, and 0.3% Triton X-100 for 30 minutes to 1 hour. Cells were stained overnight at 4° C. with primary antibodies diluted in blocking buffer. Following several washes, cells were stained with appropriate Alexa Fluor-labeled secondary antibodies (Molecular Probes, Carlsbad, Calif.) at 1:500 in blocking buffer for 30 minutes to 3 hours at room temperature. Cells were counterstained with 4′,6-diamidino-2-phenylindole (DAPI; Thermo Fisher, Rockford, Ill.) to visualize nuclei. Images were acquired with an Olympus IX81 microscope using a Hamamatsu ORCA CCD camera.
# Cells were collected with a cell lifter (Corning, Tewksbury, Mass.) in ice-cold phosphate-buffered saline without calcium or magnesium (PBS−/−). Cell pellets were rapidly frozen on ethanol and dry ice and stored at −80° C. Cell pellets were thawed on ice and resuspended in 50-200 μl RIPA lysis buffer (50 mM Tris-HCl pH 8.0, 120 mM NaCl, 6 mM EDTA, 0.5% NP-40) with 1% sodium dodecyl sulfate (SDS). Cell suspensions were vortexed at 15-minute intervals during a 45-minute incubation on ice. Lysates were isolated following a 10,000 rpm spin for 10 minutes at 4° C. 20-40 μg samples were further diluted with 4× Laemmli sample buffer, boiled for 5 minutes at 95° C., and loaded onto a NuPAGE 4-12% Bis-Tris precast gel (Life Technologies). Gel electrophoresis was performed at 100 V for 2 hours. Gels were transferred to a methanol activated PVDF membrane using the XCell II Blot Module (Life Technologies) according to the manufacturer's instructions. Blots were blocked in 3% bovine serum albumin (BSA) in Tris buffered saline plus 0.1% Tween-20 (TBS-T) for 45 minutes at room temperature. […]
# Following several washes with TBS-T, blots were incubated in appropriate HRP-labeled secondary antibodies (Jackson ImmunoResearch, West Grove, Pa.) for 1 hour at room temperature. […] Densitometry quantification was performed using ImageJ on blots from three independent experiments.
# [1] = system: proliferating cells in iPSC-derived mDA neuron cultures; test: Mitomycin C treatment of iPSC-derived mDA neuron cultures; format: cell-based, human; details: 1 day following the final day 30 replating
# Protocol: One to two days after plating, cells were treated with 1 μg/ml mitomycin C (Tocris) for 1 hour to kill any remaining proliferating contaminants. iPSC-derived mDA neurons were fed every 2 to 3 days and maintained without passaging until the desired timepoint for a given experiment. PO, laminin and fibronectin were added to the medium every 7-10 days to prevent neurons from lifting off.
# [2] = system: doxycycline (dox)-inducible fibroblast line; test: Reversibility of progerin-induced nuclear changes in doxycycline-inducible fibroblast line; format: cell-based; details: following re-addition of doxycycline
# motor neurons (MNs) = details: after trophic factor withdrawal (Yang et al.); cited from earlier work
smiles,measurement,setting,value
"N#CC(C#N)=NNc1cccc(Cl)c1 [CCCP, carbonyl cyanide 3-chlorophenylhydrazone, reference compound]",mDA neuron marker expression after mitochondrial toxin,iPSC-derived mDA neurons,rapidly induces mDA neuron marker loss
"CO[C@@]12[C@H](COC(N)=O)C3=C(C(=O)C(C)=C(N)C3=O)N1C[C@@H]1N[C@@H]12 [Mitomycin C, mitomycin C]",post-mitotic neurons,[1],unaffected
same,remaining proliferating cells,[1],helped to eliminate the remaining proliferating cells
C[C@H]1c2cccc(O)c2C(=O)C2=C(O)[C@]3(O)C(=O)C(C(N)=O)=C(O)[C@@H](N(C)C)[C@@H]3[C@@H](O)[C@@H]21 [doxycycline],time to reversal of progerin-induced changes in nuclear morphology,[2],≤ 10 days
O=C1Cc2c([nH]c3ccc(Br)cc23)-c2ccccc2N1 [kenpaullone],survival of MNs,motor neurons (MNs),impressive ability to prolong the healthy survival of MNs
